Several values for one entry are separate records, joined by “and”; a condition that tells them apart may be missing. Equal values may be shown once. Toxic doses and inconclusive results are not listed. Rule for the calls: active = survival T/C of 150% or more; inactive = T/C below 125% in these data.
System: BDF1 mice, P388 leukemia ip, median survival T/C
Experiment: NCI In Vivo Anticancer Drug Screen. Data for tumor model P388 Leukemia (intraperitoneal) in B6D2F1 (BDF1) mice
Conditions: endpoint: median survival time, higher = longer survival
How it was run: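 Antitumour effect was judged in vivo: survival in drug-treated mice, normalised to that of vehicle-dosed controls, gives the reported T/C.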

[1] = dose: 50.0 mg/kg/injection, schedule: Q01DX009 (ip), vehicle: saline with Tween-80
[2] = dose: 100.0 mg/kg/injection, schedule: Q01DX009 (ip), vehicle: saline with Tween-80
[3] = dose: 100.0 mg/kg/injection, schedule: Q04DX003 (ip), vehicle: Klucel (hydroxypropylcellulose) (HPC)
[4] = dose: 200.0 mg/kg/injection, schedule: Q04DX003 (ip), vehicle: Klucel (hydroxypropylcellulose) (HPC)
[5] = dose: 400.0 mg/kg/injection, schedule: Q04DX003 (ip), vehicle: Klucel (hydroxypropylcellulose) (HPC)
[6] = dose: 200.0 mg/kg/injection, schedule: Q01DX009 (ip), vehicle: saline with Tween-80
[7] = dose: 100.0 mg/kg/injection, schedule: Q04DX003 (ip), vehicle: saline with Tween-80
[8] = dose: 200.0 mg/kg/injection, schedule: Q04DX003 (ip), vehicle: saline with Tween-80
[9] = dose: 400.0 mg/kg/injection, schedule: Q04DX003 (ip), vehicle: saline with Tween-80

Measured: T/C

CC1OC(O[C@@H]2C=C3CC[C@@H]4[C@H](CC[C@]5(C)[C@@H](c6ccc(=O)oc6)CC[C@]45O)[C@@]3(C)CC2)C(O)C(OC2OC(CO)C(O)C(O)C2O)C1O (stereo partly drawn)
inactive: dose: 0.8 mg/kg/injection, schedule: Q01DX010 (sc), vehicle: steriod suspending solution 100 % of control | dose: 1.6 mg/kg/injection, schedule: Q01DX010 (sc), vehicle: steriod suspending solution 95 % of control | dose: 2.0 mg/kg/injection, schedule: Q01DX010 (ip), vehicle: carboxymethylcellulose (CMC) 110 % of control | dose: 3.25 mg/kg/injection, schedule: Q01DX010 (sc), vehicle: steriod suspending solution 110 % of control | dose: 4.0 mg/kg/injection, schedule: Q01DX010 (ip), vehicle: carboxymethylcellulose (CMC) 100 % of control | dose: 7.5 mg/kg/injection, schedule: Q01DX010 (sc), vehicle: steriod suspending solution 115 % of control | dose: 8.0 mg/kg/injection, schedule: Q01DX010 (ip), vehicle: carboxymethylcellulose (CMC) 95 % of control | dose: 15.0 mg/kg/injection, schedule: Q01DX010 (sc), vehicle: steriod suspending solution 105 % of control | dose: 30.0 mg/kg/injection, schedule: Q01DX010 (sc), vehicle: steriod suspending solution 100 % of control

Nc1[nH]c(=O)ncc1[N+](=O)[O-]
inactive: [1] 102 % of control | [2] 118 % of control

Nc1ncnc2nc(-c3ccc(Br)cc3)[nH]c12
inactive: dose: 100.0 mg/kg/injection, schedule: Q01DX001 (ip), vehicle: saline with Tween-80 94 % of control | dose: 200.0 mg/kg/injection, schedule: Q01DX001 (ip), vehicle: saline with Tween-80 106 % of control

CCCCCCCCCC(O)CCC (stereo not drawn)
inactive: [3] 95 % of control | [4] 95 % of control | [5] 95 % of control

CCOCN(COCC)c1ccc(C)cc1
inactive: [1] 97 % of control | [2] 104 % of control | [6] 97 % of control

CC(=O)[O][Pb]([CH2]CC(C)C)([CH2]CC(C)C)[CH2]CC(C)C
inactive: dose: 0.19 mg/kg/injection, schedule: Q01DX009 (ip), vehicle: saline with Tween-80 123 % of control | dose: 0.38 mg/kg/injection, schedule: Q01DX009 (ip), vehicle: Klucel (hydroxypropylcellulose) (HPC) 94 % of control | dose: 0.38 mg/kg/injection, schedule: Q01DX009 (ip), vehicle: saline with Tween-80 111 % of control | dose: 0.75 mg/kg/injection, schedule: Q01DX009 (ip), vehicle: Klucel (hydroxypropylcellulose) (HPC) 105 % of control | dose: 0.75 mg/kg/injection, schedule: Q01DX009 (ip), vehicle: saline with Tween-80 106 % of control

OCC1OCC(O)C(O)C1O (stereo not drawn)
inactive: dose: 12.5 mg/kg/injection, schedule: Q01DX010 (ip), vehicle: saline 91 % of control | dose: 25.0 mg/kg/injection, schedule: Q01DX010 (ip), vehicle: saline 108 % of control | dose: 32.0 mg/kg/injection, schedule: Q03HX024 (ip), vehicle: saline 95 % of control | dose: 50.0 mg/kg/injection, schedule: Q01DX010 (ip), vehicle: saline 108 % of control | dose: 64.0 mg/kg/injection, schedule: Q03HX024 (ip), vehicle: saline 87 % of control | dose: 100.0 mg/kg/injection, schedule: Q01DX010 (ip), vehicle: saline 91 % of control | dose: 128.0 mg/kg/injection, schedule: Q03HX024 (ip), vehicle: saline 100 % of control | dose: 128.0 mg/kg/injection, schedule: Q04DX003 (ip), vehicle: saline 87 % of control and 104 % of control | dose: 200.0 mg/kg/injection, schedule: Q01DX010 (ip), vehicle: saline 110 % of control | dose: 256.0 mg/kg/injection, schedule: Q04DX003 (ip), vehicle: saline 91 % of control and 100 % of control | dose: 512.0 mg/kg/injection, schedule: Q04DX003 (ip), vehicle: saline 90 % of control | dose: 800.0 mg/kg/injection, schedule: Q01DX010 (ip), vehicle: saline 115 % of control | dose: 1024.0 mg/kg/injection, schedule: Q04DX003 (ip), vehicle: saline 100 % of control

CC(=O)N(C)C=C1C(=O)N(C)C(=O)N(C)C1=O
inactive: [1] 102 % of control | [2] 111 % of control | [6] 92 % of control

CCC(=O)c1ccc(OCC(O)CN2CCN(c3ccccc3OC)CC2)cc1 (stereo not drawn)
inactive: [7] 104 % of control | [8] 104 % of control | [9] 119 % of control

O=C(Cn1ccnc1[N+](=O)[O-])NCc1ccccc1
inactive: [1] 99 % of control | [2] 94 % of control | [6] 100 % of control

O=C(NNc1ccccc1)C(F)(F)F
inactive: dose: 12.5 mg/kg/injection, schedule: Q01DX009 (ip), vehicle: Klucel (hydroxypropylcellulose) (HPC) 90 % of control | dose: 25.0 mg/kg/injection, schedule: Q01DX009 (ip), vehicle: Klucel (hydroxypropylcellulose) (HPC) 95 % of control | dose: 37.5 mg/kg/injection, schedule: Q04DX003 (ip), vehicle: saline with Tween-80 100 % of control | dose: 50.0 mg/kg/injection, schedule: Q01DX009 (ip), vehicle: Klucel (hydroxypropylcellulose) (HPC) 110 % of control | dose: 56.25 mg/kg/injection, schedule: Q01DX001 (ip), vehicle: saline with Tween-80 104 % of control | dose: 75.0 mg/kg/injection, schedule: Q04DX003 (ip), vehicle: saline with Tween-80 104 % of control | dose: 112.5 mg/kg/injection, schedule: Q01DX001 (ip), vehicle: saline with Tween-80 100 % of control

CC1CC/C(=C\c2ccccc2)C(=O)/C1=C/c1ccccc1 (stereo not drawn)
inactive: dose: 100.0 mg/kg/injection, schedule: Q04DX003 (ip), vehicle: DMSO 112 % of control | dose: 200.0 mg/kg/injection, schedule: Q04DX003 (ip), vehicle: DMSO 87 % of control | dose: 400.0 mg/kg/injection, schedule: Q04DX003 (ip), vehicle: DMSO 87 % of control

Cc1ccc(OC/C=C/CS(=O)(=O)c2ccc(Cl)cc2)cc1
inactive: [3] 95 % of control | [4] 95 % of control | [5] 104 % of control

COc1ccc(-c2cc(C)n(C)[n+]2C)cc1
inactive: dose: 12.5 mg/kg/injection, schedule: Q01DX009 (ip), vehicle: saline with Tween-80 103 % of control | dose: 25.0 mg/kg/injection, schedule: Q01DX009 (ip), vehicle: saline with Tween-80 109 % of control

Nc1ccc(OS(=O)(=O)c2ccccc2)cc1
inactive: [1] 98 % of control | [2] 108 % of control | [6] 100 % of control | dose: 400.0 mg/kg/injection, schedule: Q01DX009 (ip), vehicle: saline with Tween-80 90 % of control

Cc1ccc(S(=O)(=O)NC(c2ccccc2)(c2ccccc2)c2ccccc2)cc1
inactive: dose: 100.0 mg/kg/injection, schedule: Q01DX009 (ip), vehicle: Klucel (hydroxypropylcellulose) (HPC) 113 % of control | dose: 200.0 mg/kg/injection, schedule: Q01DX009 (ip), vehicle: Klucel (hydroxypropylcellulose) (HPC) 109 % of control | dose: 400.0 mg/kg/injection, schedule: Q01DX009 (ip), vehicle: Klucel (hydroxypropylcellulose) (HPC) 90 % of control

O=C1CC2OCC=C3CN4CCC56c7ccccc7N1C5C2C3CC46 (stereo not drawn) (tested in a mixture with another compound)
inactive: dose: 0.5 mg/kg/injection, schedule: Q04DX003 (ip), vehicle: saline + alcohol 95 % of control | dose: 1.0 mg/kg/injection, schedule: Q04DX003 (ip), vehicle: saline + alcohol 110 % of control

CC(=O)Nc1cc(C(=O)O)cc(C(F)(F)F)c1
inactive: [7] 115 % of control | [8] 105 % of control | [9] 95 % of control

O=C(O)CCc1ccccc1
inactive: dose: 75.0 mg/kg/injection, schedule: Q01DX009 (ip), vehicle: saline with Tween-80 95 % of control | dose: 100.0 mg/kg/injection, schedule: Q01DX001 (ip), vehicle: Klucel (hydroxypropylcellulose) (HPC) 104 % of control | dose: 150.0 mg/kg/injection, schedule: Q01DX009 (ip), vehicle: saline with Tween-80 109 % of control | dose: 200.0 mg/kg/injection, schedule: Q01DX001 (ip), vehicle: Klucel (hydroxypropylcellulose) (HPC) 100 % of control | dose: 300.0 mg/kg/injection, schedule: Q01DX009 (ip), vehicle: saline with Tween-80 100 % of control | dose: 400.0 mg/kg/injection, schedule: Q01DX001 (ip), vehicle: Klucel (hydroxypropylcellulose) (HPC) 100 % of control

NS(=O)(=O)c1ccc(NC(=S)NC(=O)/C=C/c2ccccc2)cc1
inactive: dose: 100.0 mg/kg/injection, schedule: Q04DX003 (sc), vehicle: olive oil, sesame oil, peanut oil 90 % of control | dose: 200.0 mg/kg/injection, schedule: Q04DX003 (sc), vehicle: olive oil, sesame oil, peanut oil 90 % of control | dose: 400.0 mg/kg/injection, schedule: Q04DX003 (sc), vehicle: olive oil, sesame oil, peanut oil 90 % of control

N#Cc1cnc2n(c1=N)CCCCC2
inactive: [3] 94 % of control
